Here are results for 16 compounds from patent publication US10030027B2, “Soluble guanylate cyclase stimulators” (MERCK SHARP & DOHME CORP., priority 2015, dated 2018).

As usually defined, the Ki is a measure of affinity in units of concentration, obtained from inhibition or displacement.

Assay [1] addresses human recombinant sGC enzyme (Homo sapiens (Human), UniProt Q02108+Q02153). Nature of the assay: Size Exclusion Chromatography (SEC) competition binding assay using [3H] Ex-77B as the radioligand. To be noted: [3H] Ex-77B radioligand, 24 hours at 37° C. How it is done:
Binding Assay: The binding potencies of sGC compounds to the human recombinant sGC enzyme were determined in a Size Exclusion Chromatography (SEC) competition binding assay using [^3H] Ex-77B as the radioligand. [^3H] Ex-77B was prepared using a standardardized tritium exchange procedure. The parent (non-labeled) molecule was first iodinated then a Pd-catalyzed iodine to tritium exchange provided the labeled compound. […] Assays were conducted in 96-well plates in a total volume of 200 μL. […] Non-specific binding was defined by competition with 1 μM of Ex-77B. After the incubation period, the binding mixtures were loaded onto the gel-filtration plate (ThermoFischer Cat. No. 89808) pre-equilibrated with binding buffer and spun at 1000×g for 3 min at 4° C. on a Bench top centrifuge. The collected eluates in White Frame Clear Well Isoplates (Perkin Elmer Cat #6005040) received 100 μl of UltimaGold scintillation cocktail. The sealed plates were shaken vigorously and span, and counted after 6 hours with a Wallac Microbeta TriLux 1450 LSC & Luminescence Counter (Perkin Elmer). Data from competition experiments were analyzed to determine Ki values using one site fit Ki equation.

Assay [2] addresses sGC α1/β1 heterodimer (Homo sapiens (Human), UniProt Q02108+Q02153). Nature of the assay: Cell-based sGC functional assay (cyclic GMP assay for sGC activator: CASA assay). The conditions noted are these: CHO-K1/sGC cells; for Emax: CHO-K1, activity expressed as percentage of compound A (standard), read-out: % Activation; for EC50: inflection point, 4P fit, read-out: IP. From the text:
Cell-Based sGC Functional Assay (Cyclic GMP Assay for sGC Activator: CASA Assay)
Soluble guanylate cyclase (sGC) is a heme-containing enzyme that converts GTP to secondary messenger cGMP. Increases in cGMP levels affect several physiological processes including vasorelaxation through multiple downstream pathways. […] Heme-dependent activators (HDAs) preferentially activate sGC containing a ferrous heme group. To determine the effect of sGC activators on enzyme activity, the CASA assay was developed to monitor the generation of cGMP in a cell line that stably expresses the heterodimeric sGC protein.
A CHO-K1 cell line stably expressing the sGC α1/β1 heterodimer was generated using a standard transfection protocol. CHO-K1 cells were transfected with plasmids pIREShyghsGCα1 and pIRESneo-hsGCβ1 simultaneously using FUGENE reagent. Clones that stably express both subunits were selected with hygromycin and neomycin for ˜2 weeks. Clone #7 was chosen for the assay and was designated CHO-K1/sGC. CHO-K1/sGC cells were maintained in F-K12 medium containing 10% heat-inactivated Fetal Bovine Serum (FBS), 100 μg/mL penicillin/streptomycin, 0.5 mg/mL hygromycin and 0.25 mg/mL G418. The cells were then cryopreserved in LN2. On the day of the assay, the cells were thawed and resuspended in EBSS Assay Buffer (Sigma, E3024) supplemented with 5 mM MgCl2, 10 mM HEPES (4-(2-hydroxyethyl)piperazine-1-ethanesulfonic acid) and 0.05% BSA (bovine serum albumin) (EAB) and cell density was then adjusted to 2.25×10^5/mL with EAB. IBMX (3-isobutyl-1-methylxanthin, 0.5 mM) was added to inhibit degradation of cGMP. Compounds were diluted from DMSO stock solutions and added to the assay at a final DMSO concentration of 2.5%. Cells were pre-incubated in the presence and absence of 1 μM of Diethylenetriamine/nitric oxide adduct (DETA-NO; Sigma, 17018) for 30 min at 25° C. Compounds are subsequently added and incubated for 1 hr at 37° C. At the end of the incubation period, the reaction was terminated and the cells were lysed with the detection reagents from Cisbio Kits. The level of intracellular cGMP was determined using an HTRF-based assay kit (CisBio, 62GM2PEC), which detects the displacement of a fluorescence labeled cGMP from its specific antibody. The cGMP produced by test compounds was directly compared to the maximum cGMP production (this value was set to equal 100% activation.) of the published sGC-HDA compound A:
(Example 1 in WO 2010/065275, published Jun. 10, 2010). The test compounds' activity were then expressed as a percentage of compound A, the standard in every experiment. This percent activation was calculated either in the presence or absence of DETA-NO which was then plotted. Inflection points (IP) and maximum fold induction was derived using Abase analysis software for 4P fit.

Take `CC(C)(Cc1coc(C2(C)C(=O)Nc3nc(-c4nn(CC5CCCCO5)c5ncccc45)nc(N)c32)n1)C(=O)O` (single isomer, unassigned) [Example 124AB, 3-{2-[4-amino-5-methyl-6-oxo-2-{1-[tetrahydro-2H-pyran-2-ylmethyl]-1H-pyrazolo[3,4-b]pyridin-3-yl}-6,7-dihydro-5H-pyrrolo[2,3-d]pyrimidin-5-yl]-1,3-oxazol-4-yl}-2,2-dimethylpropanoic acid]: the Ki in assay [1] is 0.617 nM.

For the compound `CC1CCC(Cn2nc(-c3nc(N)c4c(n3)NC(=O)[C@@]4(C)c3nc(CC(C)(C)C(=O)O)cs3)c3cccnc32)CC1` (single isomer, unassigned) [Example 125AA], the inhibition constant Ki in assay [1] worked out at 0.783 nM.

For the compound `CC(C)(Cc1coc(C2(C)C(=O)Nc3nc(-c4nn(CC5CCCCO5)c5cc(F)ccc45)nc(N)c32)n1)C(=O)O` (single isomer, unassigned) [Example 134AB, 3-{2-[4-amino-2-{6-fluoro-1-[tetrahydro-2H-pyran-2-ylmethyl]-1H-indazol-3-yl}-5-methyl-6-oxo-6,7-dihydro-5H-pyrrolo[2,3-d]pyrimidin-5-yl]-1,3-oxazol-4-yl}-2,2-dimethylpropanoic acid], in assay [1], the Ki is 0.461 nM.

As to `CC(C)(Cc1coc(C2(C)C(=O)Nc3nc(-c4nn(CC5CCCCO5)c5ccccc45)nc(N)c32)n1)C(=O)O` (single isomer, unassigned) [Example 230AB, 3-{2-[4-amino-5-methyl-6-oxo-2-{1-[tetrahydro-2H-pyran-2-ylmethyl]-1H-indazol-3-yl}-6,7-dihydro-5H-pyrrolo[2,3-d]pyrimidin-5-yl]-1,3-oxazol-4-yl}-2,2-dimethyl-propanoic acid], the inhibitory constant (Ki) in assay [1] was 0.28 nM.

For `CC1(c2cccc(-c3nn[nH]n3)c2)C(=O)Nc2nc(-c3nn(CCC(F)(F)C(F)(F)F)c4cc(Cl)ccc34)nc(N)c21` (single isomer, unassigned) [Example 251B, 4-amino-2-[6-chloro-1-(3,3,4,4,4-penta-fluorobutyl)-1H-indazol-3-yl]-5-methyl-5-[3-(1H-tetrazol-5-yl)phenyl]-5,7-dihydro-6H-pyrrolo[2,3-d] pyrimidin-6-one], the inhibition constant Ki in assay [1] stood at 0.182 nM.

Regarding `CC(C)(Cc1coc(C2(C)C(=O)Nc3nc(-c4nn(Cc5ccccc5F)c5ccc(Cl)cc45)nc(N)c32)n1)C(=O)O` (stereo not drawn) [Example 74A, 3-(2-{4-amino-2-[5-chloro-1-(2-fluorobenzyl)-1H-indazol-3-yl]-5-methyl-6-oxo-6,7-dihydro-5H-pyrrolo[2,3-d]pyrimidin-5-yl}oxazol-4-yl)-2,2-dimethylpropanoic acid], in assay [2], the Emax came to 94% and the EC50 is 62 nM.

Consider `Cc1ccc2c(-c3nc(N)c4c(n3)NC(=O)[C@@]4(C)c3nc(CC(C)(C)C(=O)O)cs3)nn(Cc3ccc(C)c(F)c3F)c2n1` [Example 75A, (S)-3-(2-{4-amino-2-[1-(2,3-difluoro-4-methylbenzyl)-6-methyl-1H-pyrazolo[3,4-b]pyridin-3-yl]-5-methyl-6-oxo-6,7-dihydro-5H-pyrrolo[2,3-d]pyrimidin-5-yl}thiazol-4-yl)-2,2-dimethylpropanoic acid], for which, in assay [2], the Emax was found to be 155% and the EC50 worked out at 238 nM.

With `CC1(c2nc(CC(=O)O)cs2)C(=O)Nc2nc(-c3nn(CCC(F)(F)C(F)(F)F)c4ncccc34)nc(N)c21` (stereo not drawn) [Example 78A, (2-{4-Amino-5-methyl-6-oxo-2-[1-(3,3,4,4,4-pentafluorobutyl)-1H-pyrazolo[3,4-b]pyridin-3-yl]-6,7-dihydro-5H-pyrrolo[2,3-d]pyrimidin-5-yl}-1,3-thiazol-4-yl)acetic acid], the Emax in assay [2] turned out to be 93%.

Regarding `Cc1sc(C2(C)C(=O)Nc3nc(-c4nn(CCC(F)(F)C(F)(F)F)c5cc(Cl)ccc45)nc(N)c32)nc1-c1ccc(C(=O)O)cc1` (stereo not drawn) [Example 94B, 4-(2-{4-amino-2-[6-chloro-1-(3,3,4,4,4-pentafluorobutyl)-1H-indazol-3-yl]-5-methyl-6-oxo-6,7-dihydro-5H-pyrrolo[2,3-d]pyrimidin-5-yl}-5-methyl-1,3-thiazol-4-yl)benzoic acid], in assay [2], the Emax was 108% and the EC50 amounted to 178 nM.

In the case of `C[C@@H](NC(=O)CCc1ccc([C@]2(C)C(=O)Nc3nc(-c4nn(Cc5ccccc5F)c5ncccc45)nc(N)c32)cc1)C(=O)O` [Example 102B, (5S)-(3-(4-{4-amino-2-[1-(2-fluorobenzyl)-1H-pyrazolo[3,4-b]pyridin-3-yl]-5-methyl-6-oxo-6,7-dihydro-5H-pyrrolo[2,3-d]pyrimidin-5-yl}phenyl)propanoyl)-D-alanine], in assay [2], the Emax was determined as 100% and the EC50 is 573 nM.

For `CC[C@@H](NC(=O)CCc1ccc([C@]2(C)C(=O)Nc3nc(-c4nn(Cc5ccccc5F)c5ncccc45)nc(N)c32)cc1)C(=O)O` [Example 104B, (5S,2R)-2-(3-(4-{4-amino-2-[1-(2-fluorobenzyl)-1H-pyrazolo[3,4-b]pyridin-3-yl]-5-methyl-6-oxo-6,7-dihydro-5H-pyrrolo[2,3-d]pyrimidin-5-yl}phenyl)propanamido)butanoic acid], in assay [2], the Emax came to 106% and the EC50 was 1370 nM.

As for `C[C@H](O)[C@@H](NC(=O)CCc1ccc([C@]2(C)C(=O)Nc3nc(-c4nn(Cc5ccccc5F)c5ncccc45)nc(N)c32)cc1)C(=O)O` [Example 107B, (5S)-(3-(4-{4-amino-2-[1-(2-fluorobenzyl)-1H-pyrazolo[3,4-b]pyridin-3-yl]-5-methyl-6-oxo-6,7-dihydro-5H-pyrrolo[2,3-d]pyrimidin-5-yl}phenyl)propanoyl)-D-threonine], in assay [2], the Emax stood at 113% and the EC50 amounted to 397 nM.

With `CC1(c2ccc(CCCC(=O)O)cc2)C(=O)Nc2nc(-c3nn(Cc4ccccc4F)c4cc(Cl)ccc34)nc(N)c21` (stereo not drawn) [Example 115A, 4-(4-{4-amino-2-[6-chloro-1-(2-fluorobenzyl)-1H-indazol-3-yl]-5-methyl-6-oxo-6,7-dihydro-5H-pyrrolo[2,3-d]pyrimidin-5-yl}phenyl)butanoic acid], in assay [2], the Emax amounted to 79% and the EC50 turned out to be 122 nM.

For the compound `CC1(c2ccc(CC(=O)O)cc2)C(=O)Nc2nc(-c3nn(Cc4ccccc4F)c4cc(Cl)ccc34)nc(N)c21` (stereo not drawn) [Example 117A, 2-(4-{4-amino-2-[6-chloro-1-(2-fluorobenzyl)-1H-indazol-3-yl]-5-methyl-6-oxo-6,7-dihydro-5H-pyrrolo[2,3-d]pyrimidin-5-yl}phenyl)acetic acid], in assay [2], the Emax was determined as 69% and the EC50 is 302 nM.

As for `CC(C)(CCc1csc(C2(C)C(=O)Nc3nc(-c4nn(Cc5ccccc5F)c5cc(Cl)ccc45)nc(N)c32)n1)C(=O)O` (stereo not drawn) [Example 166A, 4-(2-{4-amino-2-[6-chloro-1-(2-fluorobenzyl)-1H-indazol-3-yl]-5-methyl-6-oxo-6,7-dihydro-5H-pyrrolo[2,3-d]pyrimidin-5-yl}-1,3-thiazol-4-yl)-2,2-dimethyl-butanoic acid], the Emax in assay [2] worked out at 86.4%.

As to `Cc1cccc(Cn2nc(-c3nc(N)c4c(n3)NC(=O)C4(C)c3nc(CC(C)(C)C(=O)O)co3)c3ccc(F)cc32)c1F` (stereo not drawn) [Example 212A, 3-(2-{4-amino-2-[6-fluoro-1-(2-fluoro-3-methyl-benzyl)-1H-indazol-3-yl]-5-methyl-6-oxo-6,7-dihydro-5H-pyrrolo[2,3-d]pyrimidin-5-yl}-1,3-oxazol-4-yl)-2,2-dimethyl-propanoic acid], the Emax in assay [2] stood at 135%.
